Assay results: PMC8629924 (Nature chemistry, 2021)

Biological target: T1, MaNifB (Methanosarcina acetivorans, UniProt Q8TIF7)
T1 sequence (Q8TIF7 1-323): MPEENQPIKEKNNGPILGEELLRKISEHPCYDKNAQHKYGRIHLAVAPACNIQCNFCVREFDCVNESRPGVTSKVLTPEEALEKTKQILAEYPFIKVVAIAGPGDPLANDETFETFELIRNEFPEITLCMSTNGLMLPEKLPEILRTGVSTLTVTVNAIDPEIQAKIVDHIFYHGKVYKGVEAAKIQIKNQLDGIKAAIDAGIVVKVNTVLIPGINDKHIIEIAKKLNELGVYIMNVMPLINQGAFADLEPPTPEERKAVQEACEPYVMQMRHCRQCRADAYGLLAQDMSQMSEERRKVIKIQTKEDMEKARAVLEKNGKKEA
Settings: K-cluster-loaded MaNifB; dithionite-reduced or IDS-oxidized

SMILES: C[S+](CC[C@H](N)C(=O)O)C[C@H]1O[C@@H](n2cnc3c(N)ncnc32)[C@H](O)[C@@H]1O (stereo partly shown) [SAM]
- CW EPR and 3-pulse ESEEM of K- to L*-cluster conversion: SAM-treated MaNifB (designated MaNifB-L*) displayed a distinct change in the line-shape
